# Laboratory results reported in patent publication US20080051387A1, “TETRAHYDROPYRIDO[3,4-D]PYRIMIDINES AND RELATED ANALOGUES” (priority 2006, published 2008).
# Molecular target: T1, chimeric human H3 receptor (Homo sapiens, UniProt Q9Y5N1)
# T1 construct: rat Galpha-i2 (Gnai2, rat); made in house; host or cells: Sf9 insect cells (baculovirus); P2 membranes
# Assay: Chimeric human H3 receptor screening GTP binding assay (inhibition of histamine-stimulated GTP-gamma35S binding, Example 8)
# Assay type: biochemical
# Conditions: 1 h; assay of Example 8; symbol "!" in column headed Ki; read-out: percent inhibition of agonist-induced GTP-gammaS binding to H3
# Outline: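 Compound tested at 4 μM against 1 μM histamine stimulation; 125 pM GTP-gamma35S binding measured by filtration and scintillation after 60 min at room temperature. Membranes from Sf9 cells expressing chimeric human H3 plus G-protein subunits, in Tris pH 7.4/NaCl/MgCl2/GDP buffer; values are % inhibition after nonspecific subtraction.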
# T1 sequence (Q9Y5N1 with tags, fused parts or gaps): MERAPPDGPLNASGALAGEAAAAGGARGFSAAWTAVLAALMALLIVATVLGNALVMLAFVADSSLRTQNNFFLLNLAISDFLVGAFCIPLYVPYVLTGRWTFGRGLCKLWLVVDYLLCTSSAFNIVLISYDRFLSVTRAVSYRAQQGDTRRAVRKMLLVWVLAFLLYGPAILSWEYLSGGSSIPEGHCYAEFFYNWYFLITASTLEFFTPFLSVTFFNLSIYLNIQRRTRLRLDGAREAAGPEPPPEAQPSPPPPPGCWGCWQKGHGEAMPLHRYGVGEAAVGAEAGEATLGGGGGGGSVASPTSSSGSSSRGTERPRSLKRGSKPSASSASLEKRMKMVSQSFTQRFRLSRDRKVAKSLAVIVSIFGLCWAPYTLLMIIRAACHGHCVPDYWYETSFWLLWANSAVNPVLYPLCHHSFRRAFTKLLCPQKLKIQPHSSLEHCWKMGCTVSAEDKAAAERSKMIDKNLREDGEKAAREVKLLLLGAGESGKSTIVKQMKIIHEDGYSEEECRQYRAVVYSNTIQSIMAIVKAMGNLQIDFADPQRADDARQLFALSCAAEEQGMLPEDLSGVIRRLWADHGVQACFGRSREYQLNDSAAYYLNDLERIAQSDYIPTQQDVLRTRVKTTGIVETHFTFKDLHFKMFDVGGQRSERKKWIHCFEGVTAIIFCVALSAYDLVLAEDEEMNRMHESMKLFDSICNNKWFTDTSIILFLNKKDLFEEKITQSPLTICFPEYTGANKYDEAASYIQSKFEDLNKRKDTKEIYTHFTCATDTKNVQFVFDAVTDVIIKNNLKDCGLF
row,SMILES,inhibition at 4 µM [%]
1,"O=C(Cc1ccc(C(F)(F)F)cc1)N1CCc2cnc(N3CCN(C4CCC4)CC3)nc2CC1 [Compound 287, 2-(4-cyclobutylpiperazin-1-yl)-7-{[4-(trifluoromethyl)phenyl]acetyl}-6,7,8,9-tetrahydro-5H-pyrimido[4,5-d]azepine]",≥ 90
2,"O=C(Cc1cccc(C(F)(F)F)c1)N1CCc2cnc(N3CCN(C4CCC4)CC3)nc2CC1 [Compound 288, 2-(4-cyclobutylpiperazin-1-yl)-7-{[3-(trifluoromethyl)phenyl]acetyl}-6,7,8,9-tetrahydro-5H-pyrimido[4,5-d]azepine]",≥ 90
3,"O=C(Cc1c(F)cccc1F)N1CCc2cnc(N3CCN(C4CCC4)CC3)nc2CC1 [Compound 291, 2-(4-cyclobutylpiperazin-1-yl)-7-[(2,6-difluorophenyl)acetyl]-6,7,8,9-tetrahydro-5H-pyrimido[4,5-d]azepine]",≥ 90
4,"O=C(Cc1cccc(C(F)(F)F)c1F)N1CCc2cnc(N3CCN(C4CCC4)CC3)nc2CC1 [Compound 292, 2-(4-cyclobutylpiperazin-1-yl)-7-{[2-fluoro-3-(trifluoromethyl)phenyl]acetyl}-6,7,8,9-tetrahydro-5H-pyrimido[4,5-d]azepine]",≥ 90
5,"O=C(Cc1ccccc1C(F)(F)F)N1CCc2cnc(N3CCN(C4CCC4)CC3)nc2CC1 [Compound 295, 2-(4-cyclobutylpiperazin-1-yl)-7-{[2-(trifluoromethyl)phenyl]acetyl}-6,7,8,9-tetrahydro-5H-pyrimido[4,5-d]azepine]",≥ 90
6,"O=C(Cc1ccccc1Br)N1CCc2cnc(N3CCN(C4CCC4)CC3)nc2CC1 [Compound 297, 7-[(2-bromophenyl)acetyl]-2-(4-cyclobutylpiperazin-1-yl)-6,7,8,9-tetrahydro-5H-pyrimido[4,5-d]azepine]",≥ 90

# Further lines, results first:
row,inhibition at 4 µM [%],SMILES
1,≥ 90,"O=C(Cc1ccc(Cl)cc1)N1CCc2cnc(N3CCN(C4CCC4)CC3)nc2CC1 [Compound 285, 7-[(4-chlorophenyl)acetyl]-2-(4-cyclobutylpiperazin-1-yl)-6,7,8,9-tetrahydro-5H-pyrimido[4,5-d]azepine]"
2,≥ 90,"O=C(Cc1ccc(F)cc1F)N1CCc2cnc(N3CCN(C4CCC4)CC3)nc2CC1 [Compound 286, 2-(4-cyclobutylpiperazin-1-yl)-7-[(2,4-difluorophenyl)acetyl]-6,7,8,9-tetrahydro-5H-pyrimido[4,5-d]azepine]"
3,≥ 90,"O=C(Cc1cccc(Br)c1)N1CCc2cnc(N3CCN(C4CCC4)CC3)nc2CC1 [Compound 289, 7-[(3-bromophenyl)acetyl]-2-(4-cyclobutylpiperazin-1-yl)-6,7,8,9-tetrahydro-5H-pyrimido[4,5-d]azepine]"
4,≥ 90,"O=C(Cc1ccc(Br)cc1)N1CCc2cnc(N3CCN(C4CCC4)CC3)nc2CC1 [Compound 290, 7-[(4-bromophenyl)acetyl]-2-(4-cyclobutylpiperazin-1-yl)-6,7,8,9-tetrahydro-5H-pyrimido[4,5-d]azepine]"
5,≥ 90,"O=C(Cc1ccc(Cl)c(Cl)c1)N1CCc2cnc(N3CCN(C4CCC4)CC3)nc2CC1 [Compound 293, 2-(4-cyclobutylpiperazin-1-yl)-7-[(3,4-dichlorophenyl)acetyl]-6,7,8,9-tetrahydro-5H-pyrimido[4,5-d]azepine]"
6,≥ 90,"O=C(Cc1ccccc1Cl)N1CCc2cnc(N3CCN(C4CCC4)CC3)nc2CC1 [Compound 294, 7-[(2-chlorophenyl)acetyl]-2-(4-cyclobutylpiperazin-1-yl)-6,7,8,9-tetrahydro-5H-pyrimido[4,5-d]azepine]"
7,≥ 90,"O=C(Cc1ccc(Cl)cc1Cl)N1CCc2cnc(N3CCN(C4CCC4)CC3)nc2CC1 [Compound 296, 2-(4-cyclobutylpiperazin-1-yl)-7-[(2,4-dichlorophenyl)acetyl]-6,7,8,9-tetrahydro-5H-pyrimido[4,5-d]azepine]"
